{"source": "patent US20040115167A1", "about": "“Drug delivery device and method having coated microprojections incorporating vasoconstrictors” (priority 2002, published 2004)", "key": {"hairless guinea pig [1]": {"test_system": "hairless guinea pig", "details": "skin sites monitored visually for 30 minutes", "method": "(§1) The systems that were applied comprised a coated microprojection array which was adhered to the center of a low density polyethylene (LDPE) 7 cm^2 disc, coated with a propriety adhesive. Two systems were applied to each hairless guinea pig.\n(§2) At the time of application, the skin of the flank of the animal was manually stretched bilaterally (opposing forces applied on both sides of the expected application site). System application was performed with an impact applicator which applied a force of 0.4 J. Following application of the systems, the stretching tension was released.\n(§3) Half of the systems were applied for 5 seconds and then removed. The second half of the systems were applied for 2 minutes and then removed. Therefore there were four test conditions with each condition having been tested with four system.\nPictures of the application skin sites were taken 2 minutes after removal of the system. The skin sites were monitored visually for 30 minutes for blanching. Bleeding was evaluated visually from the pictures by estimating the percentage of the microprojection puncture sites that were bleeding. Blood flow (mL/min/100 g) was evaluated with a laser Doppler Velocimeter (LDV) at the skin site immediately prior to application of the system and 2 minutes following removal of the system. […]"}, "hairless guinea pig [2]": {"test_system": "hairless guinea pig", "details": "for blood flow at the application site: LDV 2 minutes after removal", "method": "The Guinea pig albumin was used as a model drug or vaccine. The Guinea pig albumen and epinephrine were dry coated on the microprojections of a microprojection array. A microprojection array having long microprojections (600 microns) were chosen in order to maximize bleeding so that the efficacy of the vasoconstrictor could be more easily evaluated.\nAn aqueous coating solution containing 200 mg/ml of guinea pig albumin and 50 mg/ml of epinephrine bitartrate was prepared. A control solution was prepared which contained only 200 mg/mL guinea pig albumin in water and no vasoconstrictor. The microprojection arrays that were used a penetration angle of 80°. The penetration angle is defined as the angle between the two upper penetration edges of the microprojection. There were 72 microprojections/cm^2 and the overall area of the microprojection array was 2 cm^2.\nOne group of arrays were dipped into each solution and the excess was wicked off by briefly contacting the microprojection array with tissue. The microprojection arrays were then allowed to air-dry overnight at room temperature.\nas §1, §2, §3\nPictures of the application skin sites were taken 2 minutes after removal of the system. The skin sites were monitored visually for 30 minutes for blanching. Bleeding was evaluated visually from the pictures by estimating the percentage of the microprojection puncture sites that were bleeding. Blood flow (mL/min/100 g) was evaluated with a laser Doppler Velocimeter (LDV) at the skin site immediately prior to application of the system and 2 minutes following removal of the system. For each guinea pig, the blood flow measurement taken prior to system application was subtracted from the second measurement (normalized blood flow)."}}, "note": "Like-named read-outs stand apart in the source and are kept apart here."}
{"smiles": "CNC[C@H](O)c1ccc(O)c(O)c1", "note": "[epinephrine]", "values": [{"measurement": "time blanching was detectable after removal of the microprojection arrays", "setting": "hairless guinea pig [1]", "value": "about 30 minutes"}, {"measurement": "percentage of microslits that were bleeding", "setting": "hairless guinea pig [2]; 5-second application, 600 micron microprojection array dry coated with guinea pig albumin 200 mg/ml + epinephrine bitartrate 50 mg/ml, pictures 2 minutes after removal", "value": 20, "unit": "%"}, {"measurement": "normalized blood flow (erythema at the application site)", "setting": "hairless guinea pig [2]; FIG. 5, baseline blood flow subtracted", "value": "minimizes the erythema"}, {"measurement": "blood flow at the application site", "setting": "hairless guinea pig [2]; systems applied for 5 seconds", "value": 30, "unit": "mls/min/100 grams"}, {"measurement": "blood flow at the application site", "setting": "hairless guinea pig [2]; systems applied for 2 minutes", "value": 30, "unit": "mls/min/100 grams"}, {"measurement": "percentage of microslits that were bleeding", "setting": "hairless guinea pig [2]; two-minute application, compared with 5-second application, same coated array", "value": "little change in the data"}]}
